Results reported in patent publication US20080176913A1, “TRANSDERMAL COMPOSITIONS OF PRAMIPEXOLE HAVING ENHANCED PERMEATION PROPERTIES” (priority 2006, published 2008).
Structures can show the parent of a compound that is named as a salt. Where two headings read alike, the source gives them in different places.

Assays:
[1] = oral administration, daily dose of about 1.5 to 4.5 mg; cited from earlier work

CCCN[C@H]1CCc2nc(N)sc2C1 [pramipexole, (S)-2-amino-4,5,6,7-tetrahydro-6-(propylamino)benzothiazole dihydrochloride monohydrate]
ionization (at pH of about 8.0): about 97% | ionization (at pH of about 10.5): about 33% | bioavailability [1]: 90%
